Test [1] concerns the target T1, S627I mutant ALS (Oryza sativa subsp. japonica, UniProt Q6K2E8, S627I).
T1 construct: one type of cDNA containing a full length ALS gene could be obtained from a cDNA library derived from the wild type; made in house; host or cells: E. coli JM 109, pGEX-2T backbone; crude enzyme solution
In words: Herbicide sensitivity of crude ALS with S627I mutation only, 1 mM valine. As to conditions: crude enzyme. In kind it is biochemical, rice. As for the experimental part:
(§1) A plasmid having W548L mutant ALS gene or a plasmid having S627I mutant ALS gene was transformed into E. coli strain JM 109. The colonies obtained from transformation were subjected to liquid culture, expression of GST induction protein was induced in the same manner as in Examples 4 and 5, a crude enzyme solution was prepared, and then herbicide sensitivity of ALS was examined in the presence of 1 mM valine.

Test [2] has as its system mutant ALS protein. As to the kind of experiment: Herbicide sensitivity of ALS partially purified from the resistant mutant (acetoin colorimetric ALS activity). It counts as biochemical, rice (Kinmaze). As for the experimental part: (§2) First, 200 g or more of resistant mutant was prepared by a liquid culture method (no supplementation with bispyribac-sodium), the culture having a composition as shown in Table 1 but without Gelrite. Then, about 150 g of the resistant mutant was homogenized using Hiscotron in a volume of buffer-1 [100 mM potassium phosphate buffer (pH 7.5) containing 20% (v/v) glycerol, 0.5 mM thiamin pyrophosphate (TPP), 10 μM flavin adenine dinucleotide (FAD), 0.5 mM MgCl2, and a volume of polyvinyl polypyrrolidone one-tenth that of tissue volume] 3-fold greater than tissue volume. The homogenate was filtered through nylon gauze, and then centrifuged at 15,000×g for 20 min. Ammonium sulfate was added to the centrifuged supernatant to 50% saturation, and then allowed to stand in ice for approximately 1 hour. The mixture was again centrifuged at 15,000×g for 20 min, and then the precipitated fraction was dissolved in about 30 ml of buffer-2 [10 mM Tris hydrochloric acid buffer (pH 7.5) containing 20% (v/v) glycerol, 0.5 mM TPP and 0.5 mM MgCl2]. […]
(§3) Next, the protein concentration of the crude enzyme solution was measured by the Bradford method according to the manual of Bio-Rad Protein Assay. […]
(§4) ALS activity resulting from the mutant ALS protein contained in the eluted fractions apportioned into each test tube for apportion was measured as follows. A reaction solution to be used in a measurement reaction was prepared by mixing an eluted fraction to be measured with a solution comprising 20 mM sodium pyruvate, 0.5 mM TPP, 0.5 mM MgCl2, 10 μM FAD and 20 mM potassium phosphate buffer (pH 7.5). […] After the eluted fraction to be measured was added, the measurement reaction was performed at 30° C. for 40 to 60 min. […]
(§5) Then, to quantify acetoin contained in the reaction solution, 1 ml of 0.5% (w/v) creatine and 1 ml of 5% (w/v) α-naphthol dissolved in 2.5 N sodium hydroxide was added to the reaction solution, followed by incubation at 37° C. for 10 min. Acetoin was then quantified by color comparison of the absorbance (at 525 nm) of the reaction solution, thereby evaluating ALS activity. […]

Test [3] concerns the target T2, wild type ALS protein (Oryza sativa subsp. japonica, UniProt Q6K2E8).
T2 sequence (Q6K2E8 44-644): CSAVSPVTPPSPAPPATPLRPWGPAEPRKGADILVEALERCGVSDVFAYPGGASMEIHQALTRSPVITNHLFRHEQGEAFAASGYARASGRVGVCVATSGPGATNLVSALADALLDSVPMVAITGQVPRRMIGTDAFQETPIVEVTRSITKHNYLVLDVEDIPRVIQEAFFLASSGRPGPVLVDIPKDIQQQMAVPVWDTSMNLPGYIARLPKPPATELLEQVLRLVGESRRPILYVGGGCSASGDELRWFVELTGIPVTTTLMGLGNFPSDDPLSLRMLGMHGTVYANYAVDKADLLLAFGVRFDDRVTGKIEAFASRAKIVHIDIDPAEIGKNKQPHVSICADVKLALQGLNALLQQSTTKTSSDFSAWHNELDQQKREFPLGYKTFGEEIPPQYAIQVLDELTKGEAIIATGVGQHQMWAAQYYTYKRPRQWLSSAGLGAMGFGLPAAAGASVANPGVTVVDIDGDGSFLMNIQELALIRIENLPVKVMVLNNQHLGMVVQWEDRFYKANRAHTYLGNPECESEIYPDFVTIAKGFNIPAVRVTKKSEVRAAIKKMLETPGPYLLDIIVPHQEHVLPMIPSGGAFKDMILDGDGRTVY
As to the kind of experiment: Herbicide sensitivity of partially purified wild type ALS protein (acetoin colorimetric ALS activity). Set-up: the wild type ALS protein was separated and purified in the same manner and used for the experiment; from tissue; host or cells: wild type rice (Kinmaze) cultured cells, liquid culture; ammonium sulfate, Sephadex G-25, HiTrap Q. In kind it is biochemical, rice (Kinmaze).

Test [4] has as its target T3, W548L mutant ALS (Oryza sativa subsp. japonica, UniProt Q6K2E8, W548L).
T3 construct: one type of cDNA containing a full length ALS gene could be obtained from a cDNA library derived from the wild type; made in house; host or cells: E. coli JM 109, pGEX-2T backbone (pGEX-2T-wALS); crude enzyme solution
As to the kind of experiment: Herbicide sensitivity of crude ALS with W548L mutation only, 1 mM valine. It counts as biochemical, rice. Particulars: crude enzyme. On the procedure: as §1

The target in test [5] is mutant ALS protein (Oryza sativa subsp. japonica, UniProt Q6K2E8, S627I/W548L). As to the kind of experiment: Herbicide sensitivity of ALS partially purified from the resistant mutant (acetoin colorimetric ALS activity). In kind it is biochemical, rice (Kinmaze). Also noted: from tissue; host or cells: resistant mutant rice (Kinmaze) cultured cells, liquid culture; ammonium sulfate, Sephadex G-25, HiTrap Q. On the procedure: as §2, §3, §4, §5

The target of test [6] is T4, ALS isozyme I (Escherichia coli, UniProt P08142+P0ADF8).
T4 construct: CK1 (without plasmid); endogenous in cells
As to the kind of experiment: Inhibition by valine of ALS activity derived from E. coli (no plasmid). In kind it is biochemical. On the procedure: ALS activity resulting from the mutant ALS protein contained in the eluted fractions apportioned into each test tube for apportion was measured as follows. A reaction solution to be used in a measurement reaction was prepared by mixing an eluted fraction to be measured with a solution comprising 20 mM sodium pyruvate, 0.5 mM TPP, 0.5 mM MgCl2, 10 μM FAD and 20 mM potassium phosphate buffer (pH 7.5). One ml of this reaction solution was used. After the eluted fraction to be measured was added, the measurement reaction was performed at 30° C. for 40 to 60 min. Then, the reaction was stopped by addition of 0.1 ml of 6N sulfuric acid (or 0.25 N sodium hydroxide).
The prepared ALS enzyme contains ALS activity derived from E. coli.

Setting [7] is: 1 mM Valine, E. coli without plasmid.

Molecules are shown by their SMILES. Values joined by “and” are separate entries in the source; they are usually repeats but may differ in a detail not shown here. Equal values may be shown once.

T4 sequence (P0ADF8 whole entry): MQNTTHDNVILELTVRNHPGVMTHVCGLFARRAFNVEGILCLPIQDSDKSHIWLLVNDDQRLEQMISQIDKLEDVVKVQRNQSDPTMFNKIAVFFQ
T4 sequence (P08142 whole entry): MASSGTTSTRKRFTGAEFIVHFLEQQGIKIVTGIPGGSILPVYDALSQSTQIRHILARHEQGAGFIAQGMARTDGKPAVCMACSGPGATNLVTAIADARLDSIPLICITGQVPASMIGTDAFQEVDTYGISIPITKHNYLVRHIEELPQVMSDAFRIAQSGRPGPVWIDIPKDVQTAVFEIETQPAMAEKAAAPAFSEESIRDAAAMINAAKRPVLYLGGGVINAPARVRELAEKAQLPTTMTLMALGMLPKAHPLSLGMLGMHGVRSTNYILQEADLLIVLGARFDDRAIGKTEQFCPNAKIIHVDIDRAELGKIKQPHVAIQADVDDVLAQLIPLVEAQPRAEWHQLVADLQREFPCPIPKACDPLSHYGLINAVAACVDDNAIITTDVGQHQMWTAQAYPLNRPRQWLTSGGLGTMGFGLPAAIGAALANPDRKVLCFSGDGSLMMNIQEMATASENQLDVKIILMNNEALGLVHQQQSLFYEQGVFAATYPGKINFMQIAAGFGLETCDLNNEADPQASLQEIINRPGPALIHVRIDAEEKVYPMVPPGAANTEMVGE
T1 sequence (Q6K2E8 44-644 S627I): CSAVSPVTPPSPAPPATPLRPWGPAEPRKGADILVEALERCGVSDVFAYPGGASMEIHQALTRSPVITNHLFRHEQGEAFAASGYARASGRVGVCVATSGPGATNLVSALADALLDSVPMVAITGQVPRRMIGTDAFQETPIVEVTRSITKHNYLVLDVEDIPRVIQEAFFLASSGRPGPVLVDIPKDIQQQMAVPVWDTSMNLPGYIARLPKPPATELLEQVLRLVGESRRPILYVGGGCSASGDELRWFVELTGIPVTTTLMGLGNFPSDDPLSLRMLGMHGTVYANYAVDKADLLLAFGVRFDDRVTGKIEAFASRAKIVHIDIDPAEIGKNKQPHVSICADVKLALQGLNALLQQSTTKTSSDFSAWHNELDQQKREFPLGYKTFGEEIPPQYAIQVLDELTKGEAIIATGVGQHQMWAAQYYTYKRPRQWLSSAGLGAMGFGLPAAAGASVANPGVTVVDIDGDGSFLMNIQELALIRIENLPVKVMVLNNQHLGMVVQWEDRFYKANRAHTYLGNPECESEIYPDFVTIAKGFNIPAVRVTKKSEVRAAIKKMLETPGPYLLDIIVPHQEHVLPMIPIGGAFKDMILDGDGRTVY
Sequence of mutant ALS protein (Oryza sativa subsp. japonica, UniProt Q6K2E8, S627I/W548L) (Q6K2E8 44-644 W548L/S627I): as the sequence (Q6K2E8 44-644 S627I) above, with W505L counted along it
T3 sequence (Q6K2E8 44-644 W548L): as the sequence (Q6K2E8 44-644 S627I) above, with W505L, I584S counted along it

The IC50 is the concentration needed to halve the response being measured. Read a high IC50 as weaker potency. `CC(C)C1(C)N=C(c2nc3ccccc3cc2C(=O)O)NC1=O` (stereo not drawn) [Imazaquin, imazaquin]: the “resistance imparted by S627I mutation alone” value in test [1] is recorded as “results were similar to those for bispyribac-sodium”. Also, the “RS ratio Resistant mutant: I50 (resistant mutant)/I50 (wild type)” value in test [2] was 11.3. For the same compound, the values for the IC50 in test [3] and in test [5] were 1.48 µM and 16.7 µM, respectively. Moreover, the “resistance imparted by W548L mutation alone” value in test [4] was “results were similar to those for bispyribac-sodium”.

As a reminder, the inhibition is the change of the read-out against control, counted positive when it falls. With `CC(C)[C@H](N)C(=O)O` [Valine, valine], in test [6] (setting [7]), the ALS activity is 0.1768 OD525/40 min/0.05 ml and 0.1831 OD525/40 min/0.05 ml; the Inhibition rate came to 88%. The inhibition at 1000 µM in test [6] (1 mM Valine, E. coli without plasmid, read-out: Inhibition rate) came out at 86%. Also, the “inhibition of ALS activity derived from E. coli” value in test [6] (1 mM valine) is recorded as “almost completely inhibited”.
